In PubChem BioAssay (NCI):
Where “and” joins values, the source holds several entries; their conditions need not be identical. Identical values can stand only once.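 Five compound concentrations were applied to cells in 96-well plates for 48 hours; endpoints were derived by simple linear interpolation of the resulting dose-response curve. Abbreviation: GI50, concentration required for 50% inhibition of growth. TGI is the concentration that stops growth completely.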

How the values were obtained:
Test in all cases: growth of human tumour cells (NCI), 48 h
M19-MEL melanoma = tested on: M19-MEL melanoma
MOLT-4 leukemia = tested on: MOLT-4 leukemia
SF-539 CNS = tested on: SF-539 CNS
SK-OV-3 ovarian = tested on: SK-OV-3 ovarian
OVCAR-8 ovarian = tested on: OVCAR-8 ovarian
DLD-1 colon = tested on: DLD-1 colon
HOP-62 NSCLC = tested on: HOP-62 NSCLC
UACC-257 melanoma = tested on: UACC-257 melanoma
EKVX NSCLC = tested on: EKVX NSCLC
HS 578T breast = tested on: HS 578T breast

SMILES	TGI (M19-MEL melanoma) [µM]	TGI (MOLT-4 leukemia)	TGI (SF-539 CNS)	TGI (SK-OV-3 ovarian)	TGI (OVCAR-8 ovarian)	TGI (DLD-1 colon) [µM]	TGI (HOP-62 NSCLC) [µM]	TGI (UACC-257 melanoma) [µM]	TGI (EKVX NSCLC) [µM]	GI50 (MOLT-4 leukemia) [µM]	GI50 (SF-539 CNS) [µM]	GI50 (SK-OV-3 ovarian) [µM]	GI50 (OVCAR-8 ovarian) [µM]	GI50 (UACC-257 melanoma) [µM]	GI50 (EKVX NSCLC) [µM]	TGI (HS 578T breast) [µM]	GI50 (HS 578T breast) [µM]	GI50 (M19-MEL melanoma) [µM]	GI50 (DLD-1 colon) [µM]	GI50 (HOP-62 NSCLC) [µM]
COc1cc2c(c3c1C=CCO3)C(=O)c1ccccc1C2=O	> 100	79.2 µM	> 100 µM	> 100 µM	> 100 µM	71.1	> 100	68.9	> 100											
CCCCCCCCCCCCC(=O)OC(c1cnco1)c1nc(C(O)CC(O)C(O)C(C)O)co1 (stereo not drawn)	> 52.7	5.14 µM	> 100 µM	> 100 µM	> 55.7 µM	> 100	> 100	> 83	> 100	0.537	3.73	4.64	0.849	5.16	6.56					
FC(F)(F)c1nc(-c2ccccc2Cl)[nH]c1C(F)(F)F	3.77	> 29.5 µM	4.48 µM	2.45 µM	6.14 µM	> 29.5	1.35	2.2	2.25											
CN(C)/C(=N/C(=S)Nc1ccccc1)SCc1ccccc1	> 100	> 100 µM	> 100 µM	> 100 µM	> 100 µM	> 100	> 100	> 100	> 100											
CCCCCCCCCCCCCCCC(=O)NCC(COP(=O)([O-])OCC[N+](C)(C)C)OCC (stereo not drawn)	16.2	10.1 µM	29.8 µM	42.6 µM	17.2 µM	16.9	20.1	30.4	36.5											
COC(=O)C(C#N)=C1c2ccccc2Oc2ccccc21	> 100	> 100 µM	> 100 µM	> 100 µM	> 100 µM	> 100	> 100	> 100	> 100											
O=c1cc(-c2cccc(F)c2)[nH]c2cc3c(cc12)OCO3	75	75 µM and > 16.8 µM	0.301 µM and 0.247 µM	1.01 µM and 1.03 µM	5.02 µM and 1.55 µM	8.93	21.3	> 100	> 100	0.799	0.133	0.265	0.286			0.181				
O=C1NC2(CCCC2)C(=O)C12CCCC2	> 100	> 100 µM	> 100 µM	> 100 µM	> 100 µM	> 100	> 100	> 100	> 100											
O=C(/C=C/c1ccccc1)/C=C/c1ccccc1O	33.6	63.1 µM	44.3 µM	57.5 µM	30.6 µM	36.9	> 100	44.3	39.8											
COC(=O)C(=O)CC(=O)CCn1ncc(Cl)c(Cl)c1=O	15.3	22.1 µM	35.2 µM	40.8 µM	27.9 µM	24.9	42.1	25.8	33.8							87.5	27.3			
CC(=O)[CH-]C(=O)c1ccccc1.CC(=O)[CH-]C(=O)c1ccccc1.CCCCCCCCCCCCCCCCCC(=O)[O-].CCCCCCCCCCCCCCCCCC(=O)[O-].[Ti+4]	97.9	62 µM	31.3 µM	37.9 µM	48.3 µM	> 100	90.9	68.5	> 100	21.7	17.2	21.9	22.6	24.6	74.2			27.6	31.7	30.7
C=CC1=CSNN1	> 100	> 100 µM	> 100 µM	> 100 µM	> 100 µM	> 100	> 100	> 100	> 100											
C#CCNC(=O)NC(CCCNC(=O)OCc1ccccc1)C(=O)OCc1ccccc1 (stereo not drawn)	> 100	> 100 µM	> 100 µM	> 100 µM	> 100 µM	> 100	> 100	93.3	> 100											
COC(=O)C(c1[nH]nc2ccccc12)C(C(=O)OC)c1[nH]nc2ccccc12 (stereo not drawn)	> 100	82.5 µM	44.9 µM	> 100 µM	77.6 µM	> 100	> 100	> 100	> 100											
